Holding throughout (experiment): In Vitro Anti-Bacterial Activity Test (MIC, agar dilution)
Common to all, as to type: cell-based

In assay [1] the test system is Enterobacter cloacae 1321E. A digest of the protocol: (§1)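 Ciprofloxacin was the control antibacterial in this Muller-Hinton agar dilution test. Cultures of 10^7 C.F.U./ml grew for 18 hours at 37° C., and inhibition of growth set the MIC.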
The test system of a further assay is Enterobacter cloacae P99. The note with it: Enterobacter cloacae, P99, 18 h. A digest of the protocol:
(§2)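 MIC was determined by agar dilution on Mueller-Hinton agar. Each strain was inoculated at 10^7 C.F.U./ml, and growth was observed after 18 hours at 37° C, with ciprofloxacin as control agent.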

For a further assay, the system named is Escherichia coli 078. The essentials:
as §1

The test system of another assay is Escherichia coli 1507E. The following applies: Escherichia coli, 1507E, 18 h, Muller-Hinton agar, 37° C. A digest of the protocol: as §1
The test system of a further assay is Escherichia coli DC0. The following applies: Muller-Hinton agar, 37° C., 18 hours, read-out: MIC. A digest of the protocol: as §1
In the next assay the test system is Escherichia coli DC2. The following applies: Escherichia coli, DC2, 18 h. The essentials: as §1
Another assay has as its system Escherichia coli TEM. The note with it: Escherichia coli, 18 h, Muller-Hinton agar, 37° C. The essentials:
as §2

Assay [2] concerns Klebsiella aerogenes 1522E. The note with it: Klebsiella aerogenes, 1522E, 18 h, Klebsiella aerogenes 1522E; Muller-Hinton agar, 37° C., 18 hours; read-out: MIC. The essentials: as §1
The next assay relates to Klebsiella oxytoca 1082E. A digest of the protocol:
as §1

The subject of assay [3] is Pseudomonas aeruginosa 1592E. The following applies: Muller-Hinton agar, 37° C., 18 hours, read-out: MIC. A digest of the protocol: as §1
Assay [4] has as its system Pseudomonas aeruginosa 1771M. The note with it: Pseudomonas aeruginosa, 1771M, 18 h, Muller-Hinton agar, 37° C. The essentials:
as §1

Assay [5] concerns Pseudomonas aeruginosa 1771. A digest of the protocol:
as §1

Assay [6] has as its system Pseudomonas aeruginosa 9027. The following applies: Muller-Hinton agar, 37° C., 18 hours, read-out: MIC. A digest of the protocol: as §1
The test system of another assay is Salmonella typhimurium. The note with it: Salmonella enterica; Salmonella typhimurium; Muller-Hinton agar, 37° C., 18 hours; read-out: MIC. A digest of the protocol: as §1
In assay [7] the test system is Staphylococcus aureus 285. The following applies: Staphylococcus aureus, 285, 18 h, Staphylococcus aureus 285; Muller-Hinton agar, 37° C., 18 hours; read-out: MIC. A digest of the protocol:
as §1

Assay [8] has as its system Staphylococcus aureus 503. The following applies: Staphylococcus aureus 503; Muller-Hinton agar, 37° C., 18 hours; read-out: MIC. The essentials:
as §1

Assay [9] deals with Staphylococcus aureus SG511. The following applies: Staphylococcus aureus SG511; Muller-Hinton agar, 37° C., 18 hours; read-out: MIC. A digest of the protocol: as §1
Assay [10] relates to Streptococcus faecium MD8b. The following applies: Enterococcus faecium, Muller-Hinton agar, 37° C., 18 hours, read-out: MIC. The essentials:
as §1

In assay [11] the test system is Streptococcus pyogenes 308A. The following applies: Muller-Hinton agar, 37° C., 18 hours, read-out: MIC. A digest of the protocol:
as §1

The subject of assay [12] is Streptococcus pyogenes 77A. The following applies: Streptococcus pyogenes 77A; Muller-Hinton agar, 37° C., 18 hours; read-out: MIC. The essentials: as §1
[13] abbreviates: Enterobacter cloacae 1321E, Muller-Hinton agar, 37° C., 18 hours, read-out: MIC.
Where [14] appears, read: Escherichia coli 078, Muller-Hinton agar, 37° C., 18 hours, read-out: MIC.
Where [15] appears, read: Klebsiella oxytoca 1082E, Muller-Hinton agar, 37° C., 18 hours, read-out: MIC.
[16] abbreviates: Pseudomonas aeruginosa 1771, Muller-Hinton agar, 37° C., 18 hours, read-out: MIC.

Where a name gives a salt, the structure may show the parent alone. Read-outs that look alike come from different tables or passages of the source.

`CCn1cc(C(=O)C[N+](=O)[O-])c(=O)c2cc(F)c(N3CCC(N)C3)c(F)c21` (stereo not drawn) [Example 30, 1-ethyl-6,8-difluoro-7-(3-aminopyrrolidin-1-yl)-3-(2-nitroacetyl)-1,4-dihydro-4-oxoquinoline hydrochloride]: the MIC (commonly the smallest concentration in the dilution series that meets the test's criterion for growth inhibition) in [1] (setting [13]) was found to be 0.049 µg/mL; against Enterobacter cloacae P99, 0.049 µg/mL; with Escherichia coli 078 (Escherichia coli, 078, 18 h), 0.049 µg/mL; in the assay on Escherichia coli 1507E it was 0.391 µg/mL; with Escherichia coli DC0 it was 0.781 µg/mL; with Escherichia coli DC2, 0.195 µg/mL. Further, the MIC with Escherichia coli TEM is 0.391 µg/mL; in assay [2], 0.098 µg/mL; with Klebsiella oxytoca 1082E (Klebsiella oxytoca, 1082E, 18 h), 0.391 µg/mL; in assay [3], 0.781 µg/mL; in [4] it was 0.195 µg/mL; in [5] (Pseudomonas aeruginosa, 1771, 18 h), 0.391 µg/mL. The MIC was found to be 0.781 µg/mL in assay [6]; 0.781 µg/mL with Salmonella typhimurium; 0.195 µg/mL in assay [7]; 0.195 µg/mL in assay [8]; 0.195 µg/mL in assay [9]; 1.56 µg/mL in [10]. Also, the MIC in [11] and in assay [12] was 1.56 µg/mL in each case.

Take `CNC1CCN(c2c(F)cc3c(=O)c(C(=O)C[N+](=O)[O-])cn(C4CC4)c3c2Cl)C1` (stereo not drawn) [Example 63, 1-cyclopropyl-6-fluoro-8-chloro-7-(3-methylaminopyrrolidin-1-yl)-3-(2-nitroacetyl)-1,4-dihydro-4-oxoquinoline hydrochloride]: the MIC was 0.013 µg/mL in assay [1] (setting [13]); 0.013 µg/mL against Enterobacter cloacae P99; under 0.002 µg/mL in the assay with Escherichia coli 078 (setting [14]); 0.007 µg/mL against Escherichia coli 1507E; 0.098 µg/mL in the assay on Escherichia coli DC0; 0.025 µg/mL in the assay on Escherichia coli DC2. In addition, the MIC against Escherichia coli TEM came out at 0.007 µg/mL; in assay [2], 0.013 µg/mL; with Klebsiella oxytoca 1082E (setting [15]), 0.007 µg/mL; in assay [3] it was 0.195 µg/mL; in [4], 0.049 µg/mL; in assay [5] (setting [16]), 0.195 µg/mL. Besides, the MIC turned out to be 0.391 µg/mL in [6]; 0.004 µg/mL in the assay on Salmonella typhimurium; 0.049 µg/mL in assay [7]; 0.049 µg/mL in assay [8]; 0.025 µg/mL in assay [9]; 0.098 µg/mL in [10]. Further, the MIC in [11] stood at 0.391 µg/mL; in assay [12], 0.098 µg/mL.

Turning to `CCOC(=O)CC(=O)c1cn(C2CC2)c2c(Cl)c(N3CC[C@H](N)C3)c(F)cc2c1=O` [Example 27, 1-cyclopropyl-6-fluoro-8-chloro-7-(3-3S-aminopyrrolidin-1-yl)-3-(2-ethoxycarbonylacetyl)-1,4-dihydro-4-oxoquinoline hydrochloride], the minimal inhibitory concentration (MIC) was under 0.002 µg/mL in assay [1] (setting [13]); 0.004 µg/mL in the assay with Enterobacter cloacae P99; 0.004 µg/mL with Escherichia coli 078 (setting [14]); 0.013 µg/mL in the assay with Escherichia coli 1507E; 0.098 µg/mL in the assay with Escherichia coli DC0; 0.013 µg/mL with Escherichia coli DC2. Further, the MIC was under 0.002 µg/mL against Escherichia coli TEM; 0.013 µg/mL in [2]; under 0.002 µg/mL in the assay on Klebsiella oxytoca 1082E (setting [15]); 0.195 µg/mL in assay [3]; 0.098 µg/mL in assay [4]; 0.195 µg/mL in assay [5] (setting [16]). The MIC in assay [6] was 0.391 µg/mL; in the assay with Salmonella typhimurium, under 0.002 µg/mL; in assay [7], 0.049 µg/mL; in assay [8], 0.049 µg/mL; in assay [9], 0.098 µg/mL; in assay [10] it was 0.391 µg/mL. The MIC in assay [11] amounted to 0.781 µg/mL; in assay [12], 0.391 µg/mL.

On to `CNCC1=CCN(c2c(F)cc3c(=O)c(C(=O)CS(C)(=O)=O)cn(C4CC4)c3c2Cl)C1` [Example 46, 1-cyclopropyl-6-fluoro-8-chloro-7-(3-methylaminomethyl-2,5-dihydropyrrol-1-yl)-3-(2-methanesulfonylacetyl)-1,4-dihydro-4-oxoquinoline hydrochloride], for which the MIC in assay [1] (setting [13]) came to 0.049 µg/mL; in the assay with Enterobacter cloacae P99, 0.098 µg/mL; in the assay with Escherichia coli 078 (Escherichia coli, 078, 18 h), 0.025 µg/mL; in the assay with Escherichia coli 1507E, 0.098 µg/mL; in the assay on Escherichia coli DC0, 0.391 µg/mL; in the assay on Escherichia coli DC2, 0.098 µg/mL. For the same compound, the MIC came to 0.049 µg/mL with Escherichia coli TEM; 0.013 µg/mL in assay [2]; 0.013 µg/mL in the assay on Klebsiella oxytoca 1082E (setting [15]); 0.781 µg/mL in [3]; 0.195 µg/mL in assay [4]; 1.56 µg/mL in assay [5] (setting [16]). In addition, the MIC is 1.56 µg/mL in assay [6]; 0.195 µg/mL with Salmonella typhimurium; 0.049 µg/mL in [7]; 0.049 µg/mL in [8]; 0.098 µg/mL in [9]; 0.195 µg/mL in assay [10]. Besides, the results for the MIC in assay [11] and in assay [12] were 1.56 µg/mL and 0.391 µg/mL, respectively.

Consider `CCOC(=O)CC(=O)c1cn(C2CC2)c2c(Cl)c(N3CC=C(CNC)C3)c(F)cc2c1=O` [Example 29, 1-cyclopropyl-6-fluoro-8-chloro-7-(3-methylaminomethyl-2,5-dihydropyrrol-1-yl)-3-(2-ethoxycarbonylacetyl)-1,4-dihydro-4-oxoquinoline hydrochloride], for which the MIC in assay [1] (Enterobacter cloacae, 1321E, 18 h) amounted to 0.007 µg/mL; against Enterobacter cloacae P99 it was 0.013 µg/mL; in the assay on Escherichia coli 078 (Escherichia coli, 078, 18 h) it was 0.013 µg/mL; with Escherichia coli 1507E it was 0.049 µg/mL; with Escherichia coli DC0, 0.195 µg/mL; against Escherichia coli DC2, 0.098 µg/mL. Moreover, the MIC came to 0.013 µg/mL against Escherichia coli TEM; 0.013 µg/mL in [2]; 0.049 µg/mL in the assay with Klebsiella oxytoca 1082E (setting [15]); 0.781 µg/mL in assay [3]; 0.391 µg/mL in assay [4]; 1.56 µg/mL in assay [5] (setting [16]). Besides, the MIC turned out to be 1.56 µg/mL in [6]; 0.391 µg/mL in the assay on Salmonella typhimurium; 0.049 µg/mL in assay [7]; 0.013 µg/mL in assay [8]; 0.013 µg/mL in [9]; 0.098 µg/mL in [10]. Further, the MIC in [11] turned out to be 0.391 µg/mL; in [12], 0.098 µg/mL.

Consider `CCOC(=O)C(C(=O)OCC)C(=O)c1cn(C2CC2)c2c(Cl)c(N3CC[C@@H](N)C3)c(F)cc2c1=O` [Example 23, 1-cyclopropyl-6-fluoro-8-chloro-7-(3-3R-aminopyrrolidin-1-yl)-3-(2,2-diethoxycarbonylacetyl)-1,4-dihydro-4-oxoquinoline hydrochloride], for which the MIC in assay [1] (setting [13]) was under 0.002 µg/mL; in the assay with Enterobacter cloacae P99, 0.004 µg/mL; in the assay on Escherichia coli 078 (setting [14]) it was under 0.002 µg/mL; in the assay with Escherichia coli 1507E it was 0.013 µg/mL; in the assay with Escherichia coli DC0 it was 0.195 µg/mL; against Escherichia coli DC2 it was 0.049 µg/mL. Moreover, the MIC in the assay with Escherichia coli TEM is 0.004 µg/mL; in assay [2], 0.025 µg/mL; in the assay with Klebsiella oxytoca 1082E (setting [15]) it was under 0.002 µg/mL; in assay [3], 0.391 µg/mL; in assay [4], 0.098 µg/mL; in [5] (setting [16]) it was 0.391 µg/mL. In addition, the MIC in assay [6] was 0.781 µg/mL; in the assay with Salmonella typhimurium it was 0.004 µg/mL; in [7], 0.049 µg/mL; in assay [8], 0.049 µg/mL; in assay [9], 0.049 µg/mL; in [10] it was 0.195 µg/mL. Further, the MIC in assay [11] came to 0.781 µg/mL; in assay [12], 0.195 µg/mL.
